Data as given in US10287275B2, “16-member triamilide derivatives and uses thereof” (VICTOR PHARMA CO., LTD. ZHENJIANG, priority 2015, dated 2019).
Values after ≈ are worked out from the molar mass of the structure shown.

Legend:
Experiment in all cases: Mycoplasma susceptibility testing (MIC)
Format in all cases: cell-based
M. gallisepticum BG44T = details: Mycoplasmoides gallisepticum
Method: (§1) The MIC's in Table I and Table II were determined by standard agar-dilution assays or broth-dilution microtiter test.

M. gallisepticum S6 = details: Mycoplasmoides gallisepticum
Method: as §1

M. hyorinis BTS-7 = system: M. hyorinis BTS-7
Method: as §1

Structure (SMILES) | MIC (M. gallisepticum BG44T) | MIC (M. gallisepticum S6) | MIC (M. hyorinis BTS-7)
CC[C@H]1OC(=O)C[C@@H](O)[C@H](C)[C@@H](O[C@@H]2O[C@H](C)[C@@H](O)[C@H](N(C)C)[C@H]2O)[C@@H](CCN2CCCCC2)C[C@@H](C)C(=O)/C=C/C(C)=C/[C@@H]1CN(CC)Cc1ccccc1 [Compound 4i, (4R,5S,6S,7R,9R,11E,13E,15R,16R)-15-((benzyl(ethyl)amino)methyl)-6-(((2R,3R,4S,5S,6R)-4-(dimethylamino)-3,5-dihydroxy-6-methyltetrahydro-2H-pyran-2-yl)oxy)-16-ethyl-4-hydroxy-5,9,13-trimethyl-7-(2-(piperidin-1-yl)ethyl)oxacyclohexadeca-11,13-diene-2,10-dione] | < 0.12 µg/mL | < 0.12 µg/mL | 15.6 µg/mL (≈ 19.9 µM)
CC[C@H]1OC(=O)C[C@@H](O)[C@H](C)[C@@H](O[C@@H]2O[C@H](C)[C@@H](O)[C@H](N(C)C)[C@H]2O)[C@@H](CCN2CCCCC2)C[C@@H](C)C(=O)/C=C/C(C)=C/[C@@H]1CN(Cc1ccccc1)C(C)C [Compound 4j, (4R,5S,6S,7R,9R,11E,13E,15R,16R)-15-((benzyl(isopropyl)amino)methyl)-6-(((2R,3R,4S,5S,6R)-4-(dimethylamino)-3,5-dihydroxy-6-methyltetrahydro-2H-pyran-2-yl)oxy)-16-ethyl-4-hydroxy-5,9,13-trimethyl-7-(2-(piperidin-1-yl)ethyl)oxacyclohexadeca-11,13-diene-2,10-dione] | < 0.12 µg/mL | < 0.12 µg/mL | 0.49 µg/mL (≈ 0.614 µM)

Next, values leading:

MIC (M. gallisepticum BG44T) | MIC (M. gallisepticum S6) | MIC (M. hyorinis BTS-7) | Structure (SMILES)
< 0.12 µg/mL | < 0.12 µg/mL | 3.91 µg/mL (≈ 4.73 µM) | CC[C@H]1OC(=O)C[C@@H](O)[C@H](C)[C@@H](O[C@@H]2O[C@H](C)[C@@H](O)[C@H](N(C)C)[C@H]2O)[C@@H](CCN2CC(C)CC(C)C2)C[C@@H](C)C(=O)/C=C/C(C)=C/[C@@H]1CN(Cc1ccccc1)C(C)C (stereo partly drawn) [Compound 8a, (4R,5S,6S,7R,9R,11E,13E,15R,16R)-15-((benzyl(isopropyl)amino)methyl)-6-(((2R,3R,4S,5S,6R)-4-(dimethylamino)-3,5-dihydroxy-6-methyltetrahydro-2H-pyran-2-yl)oxy)-7-(2-(3,5-dimethylpiperidin-1-yl)ethyl)-16-ethyl-4-hydroxy-5,9,13-trimethyloxacyclohexadeca-11,13-diene-2,10-dione]
0.98 µg/mL (≈ 1.23 µM) | 3.91 µg/mL (≈ 4.89 µM) | 125 µg/mL (≈ 156 µM) | CC[C@H]1OC(=O)C[C@@H](O)[C@H](C)[C@@H](O[C@@H]2O[C@H](C)[C@@H](O)[C@H](N(C)C)[C@H]2O)[C@@H](CCN2CC(C)CC(C)C2)C[C@@H](C)C(=O)/C=C/C(C)=C/[C@@H]1CN(C)Cc1cccnc1 (stereo partly drawn) [Compound 8b, (4R,5S,6S,7R,9R,11E,13E,15R,16R)-6-(((2R,3R,4S,5S,6R)-4-(dimethylamino)-3,5-dihydroxy-6-methyltetrahydro-2H-pyran-2-yl)oxy)-7-(2-(3,5-dimethylpiperidin-1-yl)ethyl)-16-ethyl-4-hydroxy-5,9,13-trimethyl-15-((methyl(pyridin-3-ylmethyl)amino)methyl)oxacyclohexadeca-11,13-diene-2,10-dione]
7.82 µg/mL (≈ 9.82 µM) | 15.6 µg/mL (≈ 19.6 µM) | 125 µg/mL (≈ 157 µM) | CC[C@H]1OC(=O)C[C@@H](O)[C@H](C)[C@@H](O[C@@H]2O[C@H](C)[C@@H](O)[C@H](N(C)C)[C@H]2O)[C@@H](CCN2CC(C)CC(C)C2)C[C@@H](C)C(=O)/C=C/C(C)=C/[C@@H]1CN1Cc2ccccc2C1 (stereo partly drawn) [Compound 8c, (4R,5S,6S,7R,9R,11E,13E,15R,16R)-6-(((2R,3R,4S,5S,6R)-4-(dimethylamino)-3,5-dihydroxy-6-methyltetrahydro-2H-pyran-2-yl)oxy)-7-(2-(3,5-dimethylpiperidin-1-yl)ethyl)-16-ethyl-4-hydroxy-15-(isoindolin-2-ylmethyl)-5,9,13-trimethyloxacyclohexadeca-11,13-diene-2,10-dione]
